The values below come from patent US7407946B2, “Quinazoline compounds” (AstraZeneca AB, priority 2002, dated 2008).

The target of one experiment is T1, Aurora-A (Homo sapiens, UniProt O14965).
T1 construct: 6 histidine residues, spacer region and rTEV protease cleavage site (pFastBac HTc) (N); made in house; host or cells: Spodoptera frugiperda Sf21 insect cells (baculovirus)
T1 sequence (O14965 1-403): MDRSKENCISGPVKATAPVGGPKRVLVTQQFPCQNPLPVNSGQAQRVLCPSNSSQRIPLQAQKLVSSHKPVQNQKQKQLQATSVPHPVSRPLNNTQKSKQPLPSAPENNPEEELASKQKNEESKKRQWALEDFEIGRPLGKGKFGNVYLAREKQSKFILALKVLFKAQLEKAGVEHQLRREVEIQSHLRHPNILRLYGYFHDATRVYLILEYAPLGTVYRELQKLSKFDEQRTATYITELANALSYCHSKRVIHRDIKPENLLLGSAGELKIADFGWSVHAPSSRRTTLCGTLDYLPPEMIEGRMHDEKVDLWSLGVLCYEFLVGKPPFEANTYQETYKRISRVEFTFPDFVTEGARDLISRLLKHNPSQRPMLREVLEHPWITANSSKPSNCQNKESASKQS
The experiment in a line: In vitro Aurora-A kinase inhibition test. The format is biochemical.

The next experiment has as its system SW620 cells. The experiment in a line: In vitro cell cycle analysis assay. It counts as cell-based, human. The settings on record: 24 hours with compound, DNA content by FACS. How it is done: (d) In Vitro Cell Cycle Analysis Assay
This assay determines the ability of a test compound to arrest cells in specific phases of the cell cycle. Many different mammalian cell lines could be used in this assay and SW620 cells are included here as an example. SW620 cells were seeded at 7×10^5 cells per T25 flask (Costar) in 5 ml L-15 (5% FCS, 1% L-glutamine). Flasks were then incubated overnight in a humidified 37° C. incubator with 5% CO2. The following day, 5 μl of L-15 (5% FCS, 1% L-glutamine) carrying the appropriate concentration of test compound solubilised in DMSO was added to the flask. A no compound control treatments was also included (0.5% DMSO). The cells were then incubated for a defined time (24 hours) with compound. […]
Each sample was then syringed 10 times using 21-guage needle. The samples were then transferred to LPS tubes and DNA content per cell analysed by Fluorescence activated cell sorting (FACS) using a FACScan flow cytometer (Becton Dickinson). Typically 30,000 events were counted and recorded using CellQuest v1.1 software (Verity Software). Cell cycle distribution of the population was calculated using Modfit software (Verity Software) and expressed as percentage of cells with 2N (G0/G1), 2N-4N (S phase) and with 4N (G2/M) DNA content.
For orientation: In flow cytometry, cells or beads pass a laser one at a time.

The next experiment concerns the target T2, Aurora-B (Homo sapiens, UniProt Q96GD4).
T2 construct: 6-histidine; made in house; host or cells: Spodoptera frugiperda Sf21 insect cells (baculovirus)
The experiment in a line: In vitro Aurora-B kinase inhibition test. It counts as biochemical. The conditions noted are these: recombinant Aurora-B, [γ33P]ATP, peptide substrate, 60 minutes at room temperature; read-out: concentration giving 50% inhibition of enzyme activity. From the text:
(b) In Vitro Aurora-B Kinase Inhibition Test
This assay determines the ability of a test compound to inhibit serine-threonine kinase activity. DNA encoding Aurora-B may be obtained by total gene synthesis or by cloning. This DNA may then be expressed in a suitable expression system to obtain polypeptide with serine-threonine kinase activity. In the case of Aurora-B, the coding sequence was isolated from cDNA by polymerase chain reaction (PCR) and cloned into the pFastBac system in a manner similar to that described above for Aurora-A (i.e. to direct expression of a 6-histidine tagged Aurora-B protein).
For the large scale expression of Aurora-B kinase activity, Sf21 insect cells were grown at 28° C. in TC100 medium supplemented with 10% foetal calf serum (Viralex) and 0.2% F68 Pluronic (Sigma) on a Wheaton roller rig at 3 r.p.m. When the cell density reached 1.2×10^6 cells ml^−1 they were infected with plaque-pure Aurora-B recombinant virus at a multiplicity of infection of 1 and harvested 48 hours later. All subsequent purification steps were performed at 4° C. […]

The next experiment concerns SW620. The experiment in a line: In vitro cell proliferation assay (BrdU incorporation). The format is cell-based. The settings on record: Homo sapiens, SW-620; SW620, 48 hours with compound, 2 hour BrdU labelling; read-out: active at (concentration giving 50% inhibition of BrdU incorporation). From the text:
(c) In Vitro Cell Proliferation Assay
This and other assays can be used to determine the ability of a test compound to inhibit the growth of adherent mammalian cell lines, for example the human tumour cell line SW620 (ATCC CCL-227). This assay determines the ability of at test compound to inhibit the incorporation of the thymidine analogue, 5′-bromo-2′-deoxy-uridine (BrdU) into cellular DNA. SW620 or other adherent cells were typically seeded at 1×10^5 cells per well in L-15 media (GIBCO) plus 5% foetal calf serum, 1% L-glutamine (100 μl/well) in 96 well tissue culture treated 96 well plates (Costar) and allowed to adhere overnight. […] The optical density of the wells was then determined at 690 nm wavelength using a Titertek Multiscan plate reader. […]
For orientation: Incorporation of labelled thymidine or its analogues reports DNA synthesis.

Structures are written as SMILES.

T2 sequence (Q96GD4 whole entry): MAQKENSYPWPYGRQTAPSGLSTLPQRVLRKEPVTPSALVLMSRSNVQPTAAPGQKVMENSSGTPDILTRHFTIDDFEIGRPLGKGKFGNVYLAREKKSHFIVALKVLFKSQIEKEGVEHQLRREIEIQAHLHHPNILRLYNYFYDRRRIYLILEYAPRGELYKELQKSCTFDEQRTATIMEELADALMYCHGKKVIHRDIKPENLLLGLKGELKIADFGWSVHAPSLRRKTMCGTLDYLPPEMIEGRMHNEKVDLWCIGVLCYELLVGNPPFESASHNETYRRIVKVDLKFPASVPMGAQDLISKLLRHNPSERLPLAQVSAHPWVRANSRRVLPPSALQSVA

For the compound `COc1cc2c(Nc3ncc(CC(=O)Nc4cccc(F)c4)s3)ncnc2cc1OCCCN1CCC[C@@H]1COP(=O)(O)O` [Compound 2, ((2R)-1-(3-((4-((5-(2-((3-fluorophenyl)amino)-2-oxoethyl)-1,3-thiazol-2-yl)amino)-6-methoxyquinazolin-7-yl)oxy)propyl)pyrrolidin-2-yl)methyl dihydrogen phosphate], the IC50 against Aurora-A came to 10.2 nM; on Aurora-B, 9 nM; in the experiment with SW620, 6 nM. For the same compound, the “active at (cell cycle analysis, arrest of cells in specific phases)” value with SW620 cells turned out to be 20 nM.
